{"source": "patent US5514705A", "about": "“Epidioxymanadic acids A and B” (PharmaMar, S.A., priority 1994, dated 1996)", "type_in_all_cases": "cell-based", "key": {"P388 (leukemia)": {"tested_on": "P388 (leukemia)", "assay": "Cytotoxicity against P388 cell line in culture", "conditions": "Mus musculus; P388 leukemia cells in culture"}, "[1]": {"tested_on": "A549 (human lung carcinoma)", "assay": "Cytotoxicity against A549 cell line in culture", "conditions": "A549 human lung carcinoma cells in culture"}, "[2]": {"tested_on": "HT29 (human colon carcinoma)", "assay": "Cytotoxicity against HT29 cell line in culture", "conditions": "HT-29; HT29 human colon carcinoma cells in culture"}, "MEL-28 (human melanoma)": {"tested_on": "MEL-28 (human melanoma)", "assay": "Cytotoxicity against MEL-28 cell line in culture", "conditions": "SK-MEL-28; MEL-28 human melanoma cells in culture"}}}
{"molecule": "CC/C=C(C)/C=C/CCC[C@@]1(OC)C[C@H](C)[C@H](CC(=O)O)OO1", "note": "[Epidioxymanadic B, epidioxymanadic acid B]", "values": [{"measurement": "IC50", "setting": "P388 (leukemia)", "result": 0.5, "unit": "µg/mL"}, {"measurement": "IC50", "setting": "[1]", "result": 1, "unit": "µg/mL"}, {"measurement": "IC50", "setting": "[2]", "result": 2, "unit": "µg/mL"}, {"measurement": "IC50", "setting": "MEL-28 (human melanoma)", "result": 2.5, "unit": "µg/mL"}]}
{"molecule": "C/C=C(C)/C=C/CCC[C@@]1(OC)C[C@H](C)[C@H](CC(=O)O)OO1", "note": "[Epidioxymanadic A, epidioxymanadic acid A]", "values": [{"measurement": "IC50", "setting": "P388 (leukemia)", "result": 0.5, "unit": "µg/mL"}, {"measurement": "IC50", "setting": "[1]", "result": 1, "unit": "µg/mL"}, {"measurement": "IC50", "setting": "[2]", "result": 2, "unit": "µg/mL"}, {"measurement": "IC50", "setting": "MEL-28 (human melanoma)", "result": 5, "unit": "µg/mL"}]}
